Experimental findings from the OligoGym collection are described below.

Bases are written 5' to 3'; sugars and linkages follow in the same order, as letters with counts (s phosphorothioate, o phosphodiester; PS: all linkages phosphorothioate). The collection does not say whether C is 5-methylated. l = locked nucleic acid (LNA); d = 2'-deoxy (DNA)

The target of the data set is Tau. The data set is described as follows: rat primary cortical neurons, FLIPR, 25 uM ASO.
With TGATAAAACATCCCTA (sugars l4 d8 l4, PS), the calcium oscillation score is 80.5 % of control. On to TGATACCCTTCCTCAG (sugars l2 d12 l2, PS), for which the calcium oscillation score was 4.76 % of control. On to “TGATATTATCCTTTGAGCCA (sugars l3 d14 l3, PS)”, for which the calcium oscillation score was 27.4 % of control. In the case of “TGATATTGTCCAGGGACCCA (sugars l3 d14 l3, PS)” it was 0 % of control; in that of TGATCACCCTAAACCA (sugars l3 d10 l3, PS), 118 % of control. The figure for TGATCTTAGGCTGGC (sugars l3 d9 l3, PS) is 44.1 % of control; for TGATGCAGGAGTTGTA (sugars l3 d10 l3, PS) it is 7.62 % of control. In the case of TGATGGATGTTGCCTA (sugars l3 d10 l3, PS), the calcium oscillation score was 29.6 % of control.

With “TGATGGATGTTGCCTAATGA (sugars l3 d14 l3, PS)”, the calcium oscillation score was 0 % of control. For the sequence “TGATTAACCAATTAACCGAA (sugars l3 d14 l3, PS)”, the calcium oscillation score was 2.59 % of control. For TGATTGTGGGCTTA (sugars l3 d8 l3, PS), the calcium oscillation score was 28.7 % of control. The figure for TGATTGTGGGCTTAGG (sugars l3 d10 l3, PS) is 2.71 % of control. TGCAAACACTCCCTCT (sugars l2 d10 l4, PS): the calcium oscillation score was 35.4 % of control. In the case of “TGCAAGAGTCACTGCACTGC (sugars l3 d14 l3, PS)” it was 23.8 % of control.

Regarding “TGCAATTTCCTTTCCAT (sugars l3 d11 l3, PS)”, the calcium oscillation score is 67.6 % of control. The figure for “TGCACCCACTTTCCTAAT (sugars l4 d12 l2, PS)” is 56.2 % of control; for “TGCCCATTCAAAATCTT (sugars l3 d11 l3, PS)” it is 74.3 % of control; for TGCCTAATGAGCCACA (sugars l3 d10 l3, PS) it is 44.4 % of control. The figure for “TGCCTAATGAGCCACACTTG (sugars l3 d14 l3, PS)” is 29.9 % of control; for “TGCTCAGCTAAGACCCTCAG (sugars l3 d14 l3, PS)” it is 29.4 % of control.

For “TGCTCTTAGCATCAGAGGTT (sugars l3 d14 l3, PS)”, the calcium oscillation score is 25.9 % of control.

On to “TGCTTACACACCACACA (sugars l2 d12 l3, PS)”, for which the calcium oscillation score was 80.5 % of control. The figure for “TGCTTACACACCACACAC (sugars l2 d13 l3, PS)” is 60.7 % of control; for “TGCTTTTCCCAATTATT (sugars l3 d11 l3, PS)” it is 69.5 % of control.

As for “TGGAAAGATGAAATTTGCTC (sugars l3 d14 l3, PS)”, the calcium oscillation score is 5.81 % of control.

As to TGGACCACCTTACCAC (sugars l3 d10 l3, PS), the calcium oscillation score is 48.1 % of control. In the case of TGGACGTTGCTAAGAT (sugars l3 d10 l3, PS) it was 0 % of control. In the case of “TGGAGCCGATCTTGGACTTG (sugars l3 d14 l3, PS)” it was 0 % of control; in that of TGGATATAGTTAAGGC (sugars l2 d11 l3, PS), 95.2 % of control. In the case of TGGATATAGTTAAGGC (sugars l2 d12 l2, PS) it was 115 % of control; in that of TGGATATAGTTAAGGC (sugars l3 d9 l4, PS), 106 % of control. With TGGATATAGTTAAGGC (sugars l3 d10 l3, PS), the calcium oscillation score was 90.5 % of control.

Regarding TGGATATAGTTAAGGC (sugars l4 d8 l4, PS), the calcium oscillation score was 117 % of control. TGGATATAGTTAAGGC (sugars l4 d9 l3, PS): the calcium oscillation score is 107 % of control. As to TGGATCAGAGGGTCTG (sugars l3 d10 l3, PS), the calcium oscillation score was 7.41 % of control.

With TGGATGTTGCCTAATG (sugars l3 d10 l3, PS), the calcium oscillation score was 0 % of control. The figure for “TGGATGTTGCCTAATGAGCC (sugars l3 d14 l3, PS)” is 0 % of control; for “TGGCCATCTTATGCTGACCA (sugars l3 d14 l3, PS)” it is 29.4 % of control; for TGGCGACTTGTACACG (sugars l3 d10 l3, PS) it is 70.6 % of control. Regarding TGGCGGTGACTGCGA (sugars l3 d9 l3, PS), the calcium oscillation score was 107 % of control.

Turning to TGGCGTTCTCGCGG (sugars l3 d8 l3, PS), the calcium oscillation score is 93.9 % of control. The figure for TGGCTTTGGCGTTCTC (sugars l3 d10 l3, PS) is 28.7 % of control; for TGGGTGATATTGTCCA (sugars l3 d10 l3, PS) it is 92.6 % of control; for “TGGGTGATATTGTCCAGGGA (sugars l3 d14 l3, PS)” it is 0 % of control. Regarding TGGTCAAGGCTTTGGG (sugars l3 d10 l3, PS), the calcium oscillation score is 0 % of control.

On to TGGTTAGCCCTAAAGT (sugars l3 d10 l3, PS), for which the calcium oscillation score was 77 % of control. The figure for “TGGTTAGCCCTAAAGTCCCA (sugars l3 d14 l3, PS)” is 74.5 % of control; for “TGGTTTATGATGGATGTTGC (sugars l3 d14 l3, PS)” it is 0 % of control. In the case of “TGGTTTGTAGACTATTTGCA (sugars l3 d14 l3, PS)” it was 0 % of control. In the case of “TGTAATTTTCCCTACAT (sugars l3 d11 l3, PS)” it was 91.3 % of control.

On to TGTACACGATCTCCGC (sugars l3 d10 l3, PS), for which the calcium oscillation score was 145 % of control. TGTAGACTATTTGC (sugars l3 d8 l3, PS): the calcium oscillation score was 30.9 % of control. The figure for TGTAGACTATTTGCAC (sugars l3 d10 l3, PS) is 93.3 % of control; for “TGTAGACTATTTGCACACTG (sugars l3 d14 l3, PS)” it is 7.41 % of control. In the case of TGTCATCGCTTCCAGT (sugars l3 d10 l3, PS) it was 88 % of control; in that of TGTCCAAACTTTTACT (sugars l4 d8 l4, PS), 60.8 % of control.

For the sequence “TGTCCAAACTTTTACTC (sugars l4 d10 l3, PS)”, the calcium oscillation score was 65.3 % of control. In the case of “TGTCCAGGGACCCAATCTTC (sugars l3 d14 l3, PS)” it was 39.9 % of control; in that of “TGTCCTCACTTTACACAT (sugars l4 d12 l2, PS)”, 39.8 % of control; in that of TGTCGATGCTGCCG (sugars l3 d8 l3, PS), 52.2 % of control. The figure for TGTCGATGCTGCCGGT (sugars l3 d10 l3, PS) is 34.5 % of control; for TGTGATGCAGGAGTT (sugars l3 d9 l3, PS) it is 70.5 % of control. Regarding TGTGATGCAGGAGTTG (sugars l3 d10 l3, PS), the calcium oscillation score is 28.7 % of control. TGTTGCCTAATGAGCC (sugars l3 d10 l3, PS): the calcium oscillation score was 172 % of control. The figure for “TGTTGCCTAATGAGCCACAC (sugars l3 d14 l3, PS)” is 54.2 % of control; for TGTTTGATATTATCCT (sugars l3 d10 l3, PS) it is 104 % of control. Consider “TTAACCAATTAACCGAACTG (sugars l3 d14 l3, PS)”, for which the calcium oscillation score is 122 % of control. Consider “TTAACCAGCTAGTGGTGCCA (sugars l3 d14 l3, PS)”, for which the calcium oscillation score is 0 % of control. Turning to “TTAACCCTTGATCATATTTG (sugars l3 d14 l3, PS)”, the calcium oscillation score was 14.3 % of control. The figure for TTAACCGAACTGCGAG (sugars l3 d10 l3, PS) is 46.1 % of control. In the case of “TTAACTCAAATCAATTCTCA (sugars l4 d12 l4, PS)”, the calcium oscillation score is 62 % of control. For the sequence TTAACTCATCAACACCT (sugars l4 d9 l4, PS), the calcium oscillation score was 86.6 % of control. As for “TTAACTCATCAACACCTT (sugars l3 d11 l4, PS)”, the calcium oscillation score is 114 % of control. For the sequence “TTAACTCATCAACACCTTT (sugars l3 d12 l4, PS)”, the calcium oscillation score was 84 % of control. In the case of “TTAACTCATCAACACCTTTT (sugars l4 d13 l3, PS)” it was 59 % of control. In the case of “TTAAGTGATTAACCAATTAA (sugars l3 d14 l3, PS)” it was 40.1 % of control.

Turning to “TTAATTATCTGCACCTT (sugars l3 d10 l4, PS)”, the calcium oscillation score was 33.9 % of control. The figure for “TTAATTATTAAATCTTCTCT (sugars l4 d12 l4, PS)” is 60.1 % of control; for “TTAATTCATAAATGACTATA (sugars l3 d14 l3, PS)” it is 58.4 % of control; for “TTAATTCATTTAATTCTCTT (sugars l4 d12 l4, PS)” it is 86.1 % of control. TTAATTTCACCCTC (sugars l3 d8 l3, PS): the calcium oscillation score was 44.1 % of control. Take TTAATTTCACCCTCAG (sugars l3 d10 l3, PS): the calcium oscillation score is 41.7 % of control. Turning to TTACAAAGTCCACTTTC (sugars l4 d9 l4, PS), the calcium oscillation score is 69 % of control. On to TTACAAGCATTTCAAG (sugars l3 d10 l3, PS), for which the calcium oscillation score was 36.8 % of control. In the case of TTACACCACACTGTCG (sugars l3 d10 l3, PS) it was 32.1 % of control; in that of TTACACCATCCAAGTC (sugars l4 d9 l3, PS), 101 % of control; in that of “TTACACCATCCAAGTCA (sugars l4 d11 l2, PS)”, 75.5 % of control. “TTACACCATCCAAGTCAATG (sugars l3 d14 l3, PS)”: the calcium oscillation score is 24.2 % of control.

For the sequence TTACACCCAAACCTAAA (sugars l4 d9 l4, PS), the calcium oscillation score is 92.3 % of control. For “TTACCAATTATCTTTAAATT (sugars l4 d12 l4, PS)”, the calcium oscillation score is 61.9 % of control. In the case of “TTACCATCCTATCTTCT (sugars l2 d11 l4, PS)” it was 72.7 % of control; in that of “TTACCATCCTATCTTCTA (sugars l2 d13 l3, PS)”, 90.3 % of control. The figure for “TTACCCATCTTAATTCATTT (sugars l4 d14 l2, PS)” is 96.1 % of control; for TTACCCTTAAATATGC (sugars l4 d8 l4, PS) it is 73.3 % of control; for “TTACTGATCATAATCCT (sugars l4 d10 l3, PS)” it is 67.3 % of control. Regarding “TTACTTTCTACTCAATTCCA (sugars l3 d15 l2, PS)”, the calcium oscillation score is 60.6 % of control.
